Results reported in US9492471B2, “Methods of treating a disease or disorder associated with Bruton'S Tyrosine Kinase” (Celgene Avilomics Research, Inc., priority 2013, dated 2016).
Read-outs that look alike come from different tables or passages of the source.

Experiments:
Test in all cases: HotSpot kinase profiling
Type in all cases: biochemical
EPHA6 = molecular target: T1, EPHA6 (Homo sapiens, UniProt Q9UF33)
T1 construct: purchased Reaction Biology Corp
T1 sequence (Q9UF33 23-1036): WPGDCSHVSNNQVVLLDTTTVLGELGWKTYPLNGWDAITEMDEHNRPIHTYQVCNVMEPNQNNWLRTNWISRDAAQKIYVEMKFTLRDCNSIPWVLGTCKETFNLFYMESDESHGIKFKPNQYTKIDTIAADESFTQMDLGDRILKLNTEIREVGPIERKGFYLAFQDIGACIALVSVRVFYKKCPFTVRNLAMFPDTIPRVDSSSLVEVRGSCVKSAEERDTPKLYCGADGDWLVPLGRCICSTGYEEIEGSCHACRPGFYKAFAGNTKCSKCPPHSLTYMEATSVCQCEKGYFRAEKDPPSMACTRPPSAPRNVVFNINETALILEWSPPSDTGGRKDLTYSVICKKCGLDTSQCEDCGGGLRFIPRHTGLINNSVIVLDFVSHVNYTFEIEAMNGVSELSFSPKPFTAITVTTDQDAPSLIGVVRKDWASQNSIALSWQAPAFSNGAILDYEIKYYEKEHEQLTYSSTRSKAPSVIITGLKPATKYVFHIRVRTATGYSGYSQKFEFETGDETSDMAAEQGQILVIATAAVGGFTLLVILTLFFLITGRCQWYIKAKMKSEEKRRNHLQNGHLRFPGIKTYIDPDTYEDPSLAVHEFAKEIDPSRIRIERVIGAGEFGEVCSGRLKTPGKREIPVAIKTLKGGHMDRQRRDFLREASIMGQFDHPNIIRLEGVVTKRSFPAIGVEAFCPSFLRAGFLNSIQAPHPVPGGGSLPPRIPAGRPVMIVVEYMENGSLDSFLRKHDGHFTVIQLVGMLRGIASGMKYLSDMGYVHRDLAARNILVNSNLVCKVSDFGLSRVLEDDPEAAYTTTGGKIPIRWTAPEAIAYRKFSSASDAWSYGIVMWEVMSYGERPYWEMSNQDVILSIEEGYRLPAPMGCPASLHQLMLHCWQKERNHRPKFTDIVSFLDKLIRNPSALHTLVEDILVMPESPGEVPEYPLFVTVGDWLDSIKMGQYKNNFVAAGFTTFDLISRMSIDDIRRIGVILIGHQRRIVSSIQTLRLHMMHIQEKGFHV
Outline: (§1)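 Percent inhibition, averaged when run more than once and referenced to a DMSO negative control, came from a radioactive filter-binding readout on P81 paper. Reactions of kinase with freshly made substrate and cofactors ran for 2 h at room temperature.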

ABL1 = molecular target: T2, ABL1 (Homo sapiens, UniProt P00519)
T2 construct: purchased Reaction Biology Corp
T2 sequence (P00519 whole entry): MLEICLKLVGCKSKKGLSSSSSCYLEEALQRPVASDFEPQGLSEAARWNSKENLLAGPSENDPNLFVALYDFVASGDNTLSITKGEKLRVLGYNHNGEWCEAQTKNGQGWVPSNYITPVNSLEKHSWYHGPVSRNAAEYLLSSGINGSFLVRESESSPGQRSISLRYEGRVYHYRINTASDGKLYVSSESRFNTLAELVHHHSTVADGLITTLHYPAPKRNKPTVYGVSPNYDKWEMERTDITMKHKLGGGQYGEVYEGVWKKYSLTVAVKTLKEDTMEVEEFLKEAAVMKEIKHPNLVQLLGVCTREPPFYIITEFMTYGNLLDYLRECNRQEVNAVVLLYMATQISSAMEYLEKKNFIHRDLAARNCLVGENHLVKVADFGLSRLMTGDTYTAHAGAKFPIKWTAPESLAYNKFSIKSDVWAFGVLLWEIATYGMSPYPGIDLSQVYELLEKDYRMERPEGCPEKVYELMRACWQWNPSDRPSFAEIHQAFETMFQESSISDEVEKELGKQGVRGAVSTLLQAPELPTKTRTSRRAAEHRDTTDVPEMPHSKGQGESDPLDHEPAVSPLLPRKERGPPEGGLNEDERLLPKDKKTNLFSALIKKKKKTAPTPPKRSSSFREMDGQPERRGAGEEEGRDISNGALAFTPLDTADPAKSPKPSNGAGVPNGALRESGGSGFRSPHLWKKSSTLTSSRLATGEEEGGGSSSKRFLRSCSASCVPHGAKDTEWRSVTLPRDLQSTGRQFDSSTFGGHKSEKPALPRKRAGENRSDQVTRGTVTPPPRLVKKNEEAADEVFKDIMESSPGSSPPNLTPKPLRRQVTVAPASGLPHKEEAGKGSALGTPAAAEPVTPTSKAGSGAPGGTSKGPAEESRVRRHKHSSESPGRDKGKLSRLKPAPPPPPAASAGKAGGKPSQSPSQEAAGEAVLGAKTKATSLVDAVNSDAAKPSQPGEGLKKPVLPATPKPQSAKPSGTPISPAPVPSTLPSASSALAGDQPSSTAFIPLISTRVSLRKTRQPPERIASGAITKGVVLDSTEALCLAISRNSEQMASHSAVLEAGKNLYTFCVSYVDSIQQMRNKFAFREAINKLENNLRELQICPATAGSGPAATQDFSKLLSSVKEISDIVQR
Outline: as §1

MSK2/RPS6KA4 = molecular target: T3, MSK2/RPS6KA4 (Homo sapiens, UniProt O75676)
T3 construct: purchased Reaction Biology Corp
T3 sequence (O75676 whole entry): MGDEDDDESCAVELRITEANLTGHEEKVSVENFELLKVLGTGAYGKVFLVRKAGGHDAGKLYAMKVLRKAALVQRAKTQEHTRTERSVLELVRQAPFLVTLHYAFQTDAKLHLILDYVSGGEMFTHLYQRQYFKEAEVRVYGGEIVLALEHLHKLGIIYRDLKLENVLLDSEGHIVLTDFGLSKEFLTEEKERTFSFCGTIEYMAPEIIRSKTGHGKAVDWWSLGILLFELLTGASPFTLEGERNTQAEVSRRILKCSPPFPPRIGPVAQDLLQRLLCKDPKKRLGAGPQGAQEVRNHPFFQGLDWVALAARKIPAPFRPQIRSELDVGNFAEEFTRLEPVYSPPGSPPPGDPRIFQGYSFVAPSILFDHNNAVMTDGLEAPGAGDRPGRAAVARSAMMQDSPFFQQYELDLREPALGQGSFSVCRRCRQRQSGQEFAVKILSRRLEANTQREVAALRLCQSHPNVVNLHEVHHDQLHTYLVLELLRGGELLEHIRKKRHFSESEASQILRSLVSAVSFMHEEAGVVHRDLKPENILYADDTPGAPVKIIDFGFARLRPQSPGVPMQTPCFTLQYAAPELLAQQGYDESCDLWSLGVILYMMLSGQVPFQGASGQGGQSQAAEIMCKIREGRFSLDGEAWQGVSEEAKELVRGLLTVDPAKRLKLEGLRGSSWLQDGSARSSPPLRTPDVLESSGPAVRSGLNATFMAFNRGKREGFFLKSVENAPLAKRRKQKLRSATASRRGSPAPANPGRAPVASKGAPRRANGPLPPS
Outline: as §1

CDK4/cyclin D3 = molecular target: T4, CDK4/cyclin D3 (Homo sapiens, UniProt P11802)
T4 construct: purchased Reaction Biology Corp
T4 sequence (P11802 whole entry): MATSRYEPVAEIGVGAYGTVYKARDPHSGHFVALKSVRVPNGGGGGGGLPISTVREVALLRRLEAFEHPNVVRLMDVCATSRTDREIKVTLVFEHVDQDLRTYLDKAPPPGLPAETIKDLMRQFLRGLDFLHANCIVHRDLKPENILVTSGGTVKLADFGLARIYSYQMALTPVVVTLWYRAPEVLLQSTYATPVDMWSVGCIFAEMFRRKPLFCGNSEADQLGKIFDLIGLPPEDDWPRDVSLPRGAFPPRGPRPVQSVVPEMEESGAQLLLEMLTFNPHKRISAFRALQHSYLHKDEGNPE
T4 sequence (P30281 whole entry partner): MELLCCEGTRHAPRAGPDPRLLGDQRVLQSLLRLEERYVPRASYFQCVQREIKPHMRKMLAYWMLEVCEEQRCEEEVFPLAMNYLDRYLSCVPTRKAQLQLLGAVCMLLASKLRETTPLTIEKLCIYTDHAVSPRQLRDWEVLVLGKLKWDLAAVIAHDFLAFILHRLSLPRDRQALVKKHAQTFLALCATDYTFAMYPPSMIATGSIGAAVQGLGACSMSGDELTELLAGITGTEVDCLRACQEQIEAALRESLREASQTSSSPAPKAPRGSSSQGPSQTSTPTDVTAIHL
Outline: as §1

LYN B = molecular target: T5, LYN B (Homo sapiens, UniProt P07948)
T5 construct: purchased Reaction Biology Corp
T5 sequence (P07948 1-491 isoform P07948-2): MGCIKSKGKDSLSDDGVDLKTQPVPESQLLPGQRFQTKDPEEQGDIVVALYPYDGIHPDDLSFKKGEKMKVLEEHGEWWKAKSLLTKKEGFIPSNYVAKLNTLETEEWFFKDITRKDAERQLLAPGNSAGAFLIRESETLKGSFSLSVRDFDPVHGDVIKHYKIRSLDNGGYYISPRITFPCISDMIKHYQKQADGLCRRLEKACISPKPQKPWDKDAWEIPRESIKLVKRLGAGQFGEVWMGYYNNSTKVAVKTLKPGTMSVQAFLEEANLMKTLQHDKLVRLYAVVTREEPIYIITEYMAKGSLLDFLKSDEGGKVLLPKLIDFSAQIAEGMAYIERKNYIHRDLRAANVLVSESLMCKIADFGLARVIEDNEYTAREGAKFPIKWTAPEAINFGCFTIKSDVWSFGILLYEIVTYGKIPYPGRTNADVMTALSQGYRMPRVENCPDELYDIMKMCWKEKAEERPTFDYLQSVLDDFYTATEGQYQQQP
Outline: as §1

ITK = molecular target: T6, ITK (Homo sapiens, UniProt Q08881)
T6 construct: purchased Reaction Biology Corp
T6 sequence (Q08881 1-620): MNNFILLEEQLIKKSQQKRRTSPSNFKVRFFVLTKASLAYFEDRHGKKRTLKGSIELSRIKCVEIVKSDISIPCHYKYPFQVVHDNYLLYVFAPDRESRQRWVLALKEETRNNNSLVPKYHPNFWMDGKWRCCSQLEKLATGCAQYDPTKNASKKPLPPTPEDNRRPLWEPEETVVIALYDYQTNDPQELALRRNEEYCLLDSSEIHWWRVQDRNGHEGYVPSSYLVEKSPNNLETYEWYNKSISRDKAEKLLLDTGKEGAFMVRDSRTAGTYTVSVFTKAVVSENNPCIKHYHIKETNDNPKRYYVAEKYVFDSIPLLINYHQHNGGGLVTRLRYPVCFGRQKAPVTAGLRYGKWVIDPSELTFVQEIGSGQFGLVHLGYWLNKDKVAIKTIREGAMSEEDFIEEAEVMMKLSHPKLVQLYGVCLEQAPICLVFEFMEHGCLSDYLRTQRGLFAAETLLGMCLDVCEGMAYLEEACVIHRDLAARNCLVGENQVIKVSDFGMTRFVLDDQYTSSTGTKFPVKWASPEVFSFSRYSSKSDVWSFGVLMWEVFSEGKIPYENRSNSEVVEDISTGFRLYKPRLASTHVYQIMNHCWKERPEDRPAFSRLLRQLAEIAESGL
Outline: as §1

[1] = read-out: % Enzyme Activity (relative to DMSO controls) Run 1
[2] = read-out: % Enzyme Activity (relative to DMSO controls) Run 2

## C=CC(=O)Nc1cccc(Nc2nc(Nc3ccc(OCCOC)c(F)c3)ncc2F)c1 [Compound 2]
EPHA6
  inhibition at 3 µM: 1.24%
EPHA6; [1]
  remaining activity at 3 µM: 95.5%
EPHA6; [2]
  remaining activity at 3 µM: 102%
ABL1
  inhibition at 3 µM: 54.7%
ABL1; [1]
  remaining activity at 3 µM: 45.4%
ABL1; [2]
  remaining activity at 3 µM: 45.2%
MSK2/RPS6KA4
  inhibition at 3 µM: -0.36%
MSK2/RPS6KA4; [1]
  remaining activity at 3 µM: 103%
MSK2/RPS6KA4; [2]
  remaining activity at 3 µM: 97.4%
CDK4/cyclin D3
  inhibition at 3 µM: 5.15%
CDK4/cyclin D3; [1]
  remaining activity at 3 µM: 95.5%
CDK4/cyclin D3; [2]
  remaining activity at 3 µM: 94.2%
LYN B
  inhibition at 3 µM: 5.7%
LYN B; [1]
  remaining activity at 3 µM: 92.9%
LYN B; [2]
  remaining activity at 3 µM: 95.7%
ITK
  inhibition at 3 µM: 92%
ITK; [1]
  remaining activity at 3 µM: 7.97%
ITK; [2]
  remaining activity at 3 µM: 7.95%
